Values quoted from earlier work as cited in patent US11707272B2, “Packaged antimicrobial medical device having improved shelf life and method of preparing same” (ETHICON, LLC, priority 2012, dated 2023).

Tested on: S. aureus
Conditions: measured in a suitable growth medium; as described by Bhargava, H. et al, American Journal of Infection Control, June 1996

In the case of `Oc1cc(Cl)ccc1Oc1ccc(Cl)cc1Cl` [2,4,4′-trichloro-2′-hydroxydiphenyl ether], the “minimum inhibitory concentration (MIC) against S. aureus” value is given as 0.01 ppm.
